Data reported in patent publication US20240252488A1 (KOREA RESEARCH INSTITUTE OF CHEMICAL TECHNOLOGY, priority 2020, published 2024).

What was measured:
FADD−/− Jurkat cells = assay: Necroptosis inhibition assay, TNF-α-induced necroptosis (CellTiter-Glo 2.0); assay type: cell-based, human; conditions: TNF-α 15 ng/mL; for Necroptosis inhibition assay (Rescue %) 1 μM: compound 1 μM; for Necroptosis inhibition assay (Rescue %) 10 μM: compound 10 μM
In short: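 Compound is added to cells at final concentrations of 0.1, 1 and 10 μM and left 30 minutes at room temperature. Necroptosis is induced with 15 ng/mL TNF-α, culture continues 20 to 24 hours at 37° C, and ATP-based luminescence reports viability.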

MLKL [1] = target: T1, MLKL (Homo sapiens, UniProt Q8NB16); assay: MLKL degradation assay in HepG2 cell line (western blot); assay type: cell-based; set-up: endogenous in cells; host or cells: HepG2 or HaCaT; conditions: cell line not given; for Degradation assay (Degradation %) 1 μM: compound 1 μM; for Degradation assay (Degradation %) 10 μM: compound 10 μM
T1 sequence (Q8NB16 1-471): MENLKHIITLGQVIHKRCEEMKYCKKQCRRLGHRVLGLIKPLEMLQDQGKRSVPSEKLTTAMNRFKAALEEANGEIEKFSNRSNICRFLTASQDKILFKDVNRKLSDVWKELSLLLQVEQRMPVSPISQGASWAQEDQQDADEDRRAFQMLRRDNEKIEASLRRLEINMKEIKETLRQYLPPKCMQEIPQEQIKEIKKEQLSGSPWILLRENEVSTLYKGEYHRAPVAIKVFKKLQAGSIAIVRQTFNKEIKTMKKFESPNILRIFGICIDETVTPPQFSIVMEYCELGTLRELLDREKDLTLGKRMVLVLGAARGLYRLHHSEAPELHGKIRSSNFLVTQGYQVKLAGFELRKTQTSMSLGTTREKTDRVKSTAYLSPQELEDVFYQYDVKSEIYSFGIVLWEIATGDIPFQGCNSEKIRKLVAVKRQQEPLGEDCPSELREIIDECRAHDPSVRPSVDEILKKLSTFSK
In short: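 Chemiluminescent western blot signal reports remaining MLKL protein in HepG2 cells after 20-24 h treatment with compound at a final 1 or 10 μM. Equal protein (10-15 μg, BCA) is loaded per lane.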

MLKL [2] = target: T1, MLKL; assay: Measurement of binding affinity with MLKL receptor (competitive binding assay, Kd); set-up: made in house; host or cells: HEK 293 cell line (T7 phage in E. coli BL21-derived host is also described)
In short: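 Competitive displacement of MLKL, expressed in HEK 293 cells and DNA-tagged for qPCR, from immobilized ligand on biotin-blocked beads. Compounds were added from 111× DMSO stocks (final DMSO 0.9%). Kinase left in the eluates was quantified by qPCR to give Kd.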

SMILES	Necroptosis inhibition assay (Rescue %) 1 μM (FADD−/− Jurkat cells; FADD−/− Jurkat cells) [%]	Necroptosis inhibition assay (Rescue %) 10 μM (FADD−/− Jurkat cells; FADD−/− Jurkat cells) [%]	Degradation assay (Degradation %) 1 μM (MLKL [1]) [%]	Degradation assay (Degradation %) 10 μM (MLKL [1]) [%]	Kd (MLKL [2]) [nM]	Necroptosis inhibition assay (Rescue %) 1 μM (FADD−/− Jurkat cells) [%]	Necroptosis inhibition assay (Rescue %) 10 μM (FADD−/− Jurkat cells) [%]	Necroptosis inhibition assay (Rescue %) 1.1 μM (FADD−/− Jurkat cells; compound 1.1 µM)
Nc1ncc(-c2cnn(C3CCN(CCCN4CCN(c5ccc6c(c5)C(=O)N(C5CCC(=O)NC5=O)C6=O)CC4)CC3)c2)nc1C(=O)N[C@@H](C(=O)Nc1ccc(F)cc1)c1ccccc1 (stereo partly drawn) [TDH-491, 3-amino-6-(1-(1-(3-(4-(2-(2,6-dioxopiperidin-3-yl)-1,3-dioxoisoindolin-5-yl)piperazin-1-yl)propyl)piperidin-4-yl)-1H-pyrazol-4-yl)-N-((R)-2-((4-fluorophenyl)amino)-2-oxo-1-phenylethyl)pyrazine-2-carboxamide]	0.07	−24.78	19.04	14.39	78	–	–	–
Nc1ncc(-c2cnn(C3CCN(CCC4CCN(C(=O)CNc5ccc6c(c5)C(=O)N(C5CCC(=O)NC5=O)C6=O)CC4)CC3)c2)cc1C(=O)OC(C(=O)Nc1ccc(F)cc1)c1ccccc1 (stereo not drawn) [TDH-302, 2-((4-fluorophenyl)amino)-2-oxo-1-phenylethyl 2-amino-5-(1-(1-(2-(1-((2-(2,6-dioxopiperidin-3-yl)-1,3-dioxoisoindolin-5-yl)glycyl)piperidin-4-yl)ethyl)piperidin-4-yl)-1H-pyrazol-4-yl)nicotinate]	–	–	96.64	85.06	8.6	54.15	51.56	–
Nc1ncc(-c2cnn(C3CCN(CCCN4CCN(C(=O)c5cccc(C(=O)NC6CCC(=O)NC6=O)c5)CC4)CC3)c2)nc1C(=O)O[C@@H](C(=O)Nc1ccc(F)cc1)c1ccccc1 (stereo partly drawn) [TDH-542, (R)-2-((4-fluorophenyl)amino)-2-oxo-1-phenylethyl 3-amino-6-(1-(1-(3-(4-(3-((2,6-dioxopiperidin-3-yl)carbamoyl)benzoyl)piperazin-1-yl)propyl)piperidin-4-yl)-1H-pyrazol-4-yl)pyrazine-2-carboxylate]	24.80	29.40	84.12	72.45	0.53	–	–	–
Nc1ncc(-c2cnn(C3CCN(CCCN4CCN(CC5CCN(C(=O)COc6ccc7c(c6)C(=O)N(C6CCC(=O)NC6=O)C7=O)CC5)CC4)CC3)c2)nc1C(=O)O[C@@H](C(=O)Nc1ccc(F)cc1)c1ccccc1 (stereo partly drawn) [TDH-440, (R)-2-((4-fluorophenyl)amino)-2-oxo-1-phenylethyl 3-amino-6-(1-(1-(3-(4-((1-(2-((2-(2,6-dioxopiperidin-3-yl)-1,3-dioxoisoindolin-5-yl)oxy)acetyl)piperidin-4-yl)methyl)piperazin-1-yl)propyl)piperidin-4-yl)-1H-pyrazol-4-yl)pyrazine-2-carboxylate]	65.67	24.42	81.51	84.75	0.51	–	–	–
Nc1ncc(-c2cnn(C3CCN(CCC4CCN(C(=O)C5CN(c6ccc7nnn(C8CCC(=O)NC8=O)c(=O)c7c6)C5)CC4)CC3)c2)nc1C(=O)OC(C(=O)Nc1ccc(F)cc1)c1ccccc1 (stereo not drawn) [TDH-291, 2-((4-fluorophenyl)amino)-2-oxo-1-phenylethyl 3-amino-6-(1-(1-(2-(1-(1-(3-(2,6-dioxopiperidin-3-yl)-4-oxo-3,4-dihydrobenzo[d][1,2,3]triazin-6-yl)azetidine-3-carbonyl)piperidin-4-yl)ethyl)piperidin-4-yl)-1H-pyrazol-4-yl)pyrazine-2-carboxylate]	–	–	70.94	48.11	6.7	87.96	64.92	–
COc1cccc(NC(=O)[C@H](OC(=O)c2nc(-c3cnn(C4CCN(CCCN5CCN(C(=O)COc6ccc7c(c6)C(=O)N(C6CCC(=O)NC6=O)C7=O)CC5)CC4)c3)cnc2N)c2ccccc2)c1 (stereo partly drawn) [TDH-486, (R)-2-((3-methoxyphenyl)amino)-2-oxo-1-phenylethyl 3-amino-6-(1-(1-(3-(4-(2-((2-(2,6-dioxopiperidin-3-yl)-1,3-dioxoisoindolin-5-yl)oxy)acetyl)piperazin-1-yl)propyl)piperidin-4-yl)-1H-pyrazol-4-yl)pyrazine-2-carboxylate]	77.72	34.5	85.37	88.15	2.5	–	–	–
Nc1ncc(-c2cnn(C3CCN(CCOC4CCN(C(=O)COc5cccc6c5C(=O)N(C5CCC(=O)NC5=O)C6=O)CC4)CC3)c2)nc1C(=O)O[C@@H](C(=O)Nc1ccc(F)cc1)c1ccccc1 (stereo partly drawn) [TDH-331, (R)-2-((4-fluorophenyl)amino)-2-oxo-1-phenylethyl 3-amino-6-(1-(1-(2-((1-(2-((2-(2,6-dioxopiperidin-3-yl)-1,3-dioxoisoindolin-4-yl)oxy)acetyl)piperidin-4-yl)oxy)ethyl)piperidin-4-yl)-1H-pyrazol-4-yl)pyrazine-2-carboxylate]	–	–	54.86	60.37	2.6	–	47.13	49.38 (1.1 µM) %
Nc1ncc(-c2cnn(C3CCN(C(=O)CC4CCN(C(=O)COc5cccc6c5C(=O)N(C5CCC(=O)NC5=O)C6=O)CC4)CC3)c2)nc1C(=O)O[C@@H](C(=O)Nc1ccc(F)cc1)c1ccccc1 (stereo partly drawn) [TDH-337, (R)-2-((4-fluorophenyl)amino)-2-oxo-1-phenylethyl 3-amino-6-(1-(1-(2-(1-(2-((2-(2,6-dioxopiperidin-3-yl)-1,3-dioxoisoindolin-4-yl)oxy)acetyl)piperidin-4-yl)acetyl)piperidin-4-yl)-1H-pyrazol-4-yl)pyrazine-2-carboxylate]	–	–	46.82	65.07	2.5	32.31	45.5	–
Nc1ncc(-c2cnn(C3CCN(C(=O)CCC4CCN(C(=O)CNc5ccc6c(c5)C(=O)N(C5CCC(=O)NC5=O)C6=O)CC4)CC3)c2)nc1C(=O)O[C@@H](C(=O)Nc1ccc(F)cc1)c1ccccc1 (stereo partly drawn) [TDH-422, (R)-2-((4-fluorophenyl)amino)-2-oxo-1-phenylethyl 3-amino-6-(1-(1-(3-(1-((2-(2,6-dioxopiperidin-3-yl)-1,3-dioxoisoindolin-5-yl)glycyl)piperidin-4-yl)propanoyl)piperidin-4-yl)-1H-pyrazol-4-yl)pyrazine-2-carboxylate]	50.21	40.34	91.95	89.12	4.1	–	–	–
Nc1ncc(-c2cnn(C3CCN(C(=O)C4CCN(C(=O)C5CCN(c6ccc7c(c6)C(=O)N(C6CCC(=O)NC6=O)C7=O)CC5)CC4)CC3)c2)nc1C(=O)OC(C(=O)Nc1ccc(F)cc1)c1ccccc1 (stereo not drawn) [TDH-274, 2-((4-fluorophenyl)amino)-2-oxo-1-phenylethyl 3-amino-6-(1-(1-(1-(1-(2-(2,6-dioxopiperidin-3-yl)-1,3-dioxoisoindolin-5-yl)piperidine-4-carbonyl)piperidine-4-carbonyl)piperidin-4-yl)-1H-pyrazol-4-yl)pyrazine-2-carboxylate]	–	–	56.81	38.77	5.2	77.01	57.62	–
Nc1ncc(-c2cnn(C3CCN(C(=O)CCCCCNC(=O)CNc4cccc5c4C(=O)N(C4CCC(=O)NC4=O)C5=O)CC3)c2)nc1C(=O)O[C@@H](C(=O)Nc1ccc(F)cc1)c1ccccc1 (stereo partly drawn) [TDH-124, (R)-2-((4-fluorophenyl)amino)-2-oxo-1-phenylethyl 3-amino-6-(1-(1-(6-(2-((2-(2,6-dioxopiperidin-3-yl)-1,3-dioxoisoindolin-4-yl)amino)acetamido)hexanoyl)piperidin-4-yl)-1H-pyrazol-4-yl)pyrazine-2-carboxylate]	–	–	–	8.02	12	21.88	27.22	–
